Source: patent US8101774B2, “Ester derivatives and medicinal use thereof” (Japan Tobacco Inc., priority 2004, dated 2012)

These molecules were tested against T1, Microsomal triglyceride transfer protein (MTP) from human small intestine microsome (Homo sapiens, UniProt P55157) (assay: Inhibition test of interliposomal triglyceride (TG) transfer activity by MTP). Conditions: purified MTP from human small intestine microsome, 37° C., 1.5 hours.
T1 construct: Human small intestine microsome was dialyzed against 10 mM phosphate buffer; tissue Tissue Transforming Technologies, Inc; host or cells: human small intestine microsome
T1 sequence (P55157 19-894): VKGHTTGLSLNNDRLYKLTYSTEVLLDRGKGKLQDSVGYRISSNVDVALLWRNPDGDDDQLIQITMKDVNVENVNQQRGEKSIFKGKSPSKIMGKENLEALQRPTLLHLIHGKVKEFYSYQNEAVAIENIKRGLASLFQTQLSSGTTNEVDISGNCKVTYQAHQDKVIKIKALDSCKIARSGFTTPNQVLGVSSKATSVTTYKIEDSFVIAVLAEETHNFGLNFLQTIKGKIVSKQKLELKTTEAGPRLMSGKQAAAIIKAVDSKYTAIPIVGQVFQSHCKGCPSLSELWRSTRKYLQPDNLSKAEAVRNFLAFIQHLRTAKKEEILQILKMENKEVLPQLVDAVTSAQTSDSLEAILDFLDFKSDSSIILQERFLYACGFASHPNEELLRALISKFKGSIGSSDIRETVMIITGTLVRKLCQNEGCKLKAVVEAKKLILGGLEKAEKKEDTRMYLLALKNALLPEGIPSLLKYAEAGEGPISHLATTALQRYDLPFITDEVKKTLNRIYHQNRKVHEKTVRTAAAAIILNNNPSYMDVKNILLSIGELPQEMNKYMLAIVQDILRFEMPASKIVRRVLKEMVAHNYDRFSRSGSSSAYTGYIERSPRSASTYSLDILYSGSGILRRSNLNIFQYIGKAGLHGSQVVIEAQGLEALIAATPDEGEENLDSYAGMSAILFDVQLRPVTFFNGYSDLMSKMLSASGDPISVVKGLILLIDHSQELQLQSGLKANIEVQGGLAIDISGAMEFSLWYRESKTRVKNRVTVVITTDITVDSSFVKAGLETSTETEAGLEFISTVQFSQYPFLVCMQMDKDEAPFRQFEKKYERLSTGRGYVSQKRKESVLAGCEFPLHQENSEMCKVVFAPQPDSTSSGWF
T1 sequence (P07237 18-508 partner): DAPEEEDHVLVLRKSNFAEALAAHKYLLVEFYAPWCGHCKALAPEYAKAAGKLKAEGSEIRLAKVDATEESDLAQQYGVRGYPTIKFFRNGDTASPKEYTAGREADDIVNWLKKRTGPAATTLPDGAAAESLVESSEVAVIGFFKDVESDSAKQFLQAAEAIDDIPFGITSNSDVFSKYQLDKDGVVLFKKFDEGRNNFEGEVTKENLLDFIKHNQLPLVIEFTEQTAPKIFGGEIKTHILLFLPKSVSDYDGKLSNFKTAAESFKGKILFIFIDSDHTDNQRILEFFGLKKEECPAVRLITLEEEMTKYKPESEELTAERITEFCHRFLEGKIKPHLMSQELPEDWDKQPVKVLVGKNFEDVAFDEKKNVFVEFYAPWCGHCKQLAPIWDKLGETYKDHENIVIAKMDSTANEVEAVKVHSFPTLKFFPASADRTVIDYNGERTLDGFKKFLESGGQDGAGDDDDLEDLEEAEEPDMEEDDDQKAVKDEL
Assay type: biochemical
Experimental: Microsomal triglyceride transfer protein (MTP) from human small intestine microsome (manufactured by Tissue Transforming Technologies, Inc.) was purified in such a way described below. Human small intestine microsome was dialyzed against 10 mM phosphate buffer (300 mL, pH 6.8) twice for about 2 hours and once for further not less than 12 hours, at about 4° C. After dialysis, the mixture was centrifuged at 4° C. and 15,000×g for 5 minutes and then the supernatant was recovered. The previously recovered supernatant was purified by column chromatography on diethylaminoethyl (DEAE) Sepharose using FPLC (Fast Performance Liquid Chromatography) system, and the purified MTP was used for the test as described below.
Small unilamellar-vesicle (SUV) liposome (hereinafter described as donor, containing 0.25% (mol/mol) triolein and 5% (mol/mol) cardiolipin) constituted by triolein labeled with ^14C and non-labeled SUV liposome (hereinafter described as acceptor, containing […] triolein) were prepared in such a way described below.
Firstly, in order to prepare the donor, there were volatilized under a stream of nitrogen gas a phosphatidylcholine solution containing phosphatidylcholine labeled with ^3H, a cardiolipin solution, and a triolein solution containing triolein labeled with ^14C (each solution had been already dissolved in an appropriate organic solvent), or in order to prepare the acceptor, there were volatilized under nitrogen flow a phosphatidylcholine solution containing phosphatidylcholine labeled with ^3H and a cardiolipin solution (each solution had been already dissolved in an appropriate organic solvent). An appropriate amount of a reaction buffer (15 mM Tris-HCl buffer containing 1 mM EDTA.Na2, 40 mM NaCl, and 0.5% (w/v) bovine serum albumin, pH 7.4) was added thereto to be emulsified. The emulsions were treated with ultrasonication under ice-cooling and centrifuged at 4° C. and 159,000×g for 2 hours. Each of the resulting supernatant was used for donor or acceptor.
Each radioactivity in the acceptor and the donor was measured by liquid scintillation counter, and a mixed solution of the acceptor and the donor was prepared with a reaction buffer so as to be a donor-derived radioactivity of 16,000 dpm/400 μL and a acceptor-derived radioactivity of 4,000 dpm/[…]. 400 μL of the mixed solution of the donor and the acceptor, 45 μL of the reaction buffer, 50 μL of MTP (20 μg/mL), and 5 μL of a sample dissolved in DMSO (dimethyl sulfoxide) or 5 μL of DMSO was mixed (total amount: 500 μL). The mixture was incubated at 37° C. for 1.5 hours. After completion of the incubation, 1.25 mL of a suspension of DEAE cellulose (66.7% (v/v)) in 15 mM Tris-HCl buffer (pH 7.4) containing 1 mM EDTA.Na2 was added to the above solution. The mixture was centrifuged to separate the donor (adsorbed on the DEAE cellulose to precipitate) and the acceptor (the supernatant). The radioactivity in the acceptor was measured by liquid scintillation counter. The value obtained by subtracting the radioactivity in a blank group from the radioactivity in the acceptor of a DMSO group was determined as MTP-mediated TG transfer activity, and it was compared with the value obtained by subtracting the radioactivity in the blank group from the radioactivity in a sample group. Here, the blank was prepared by adding 10 mM phosphate buffer (pH 6.8) containing 250 mM NaCl in place of MTP. Inhibition rate (%) was calculated from values obtained according to the following equation. Inhibition rate(%)=(1 minus((radioactivity of sample group minus radioactivity of blank group)/(radioactivity of DMSO group minus radioactivity of blank group)))×100.
50% Inhibition rate (IC50) was determined on the basis of the above equation.
For `COC(=O)c1cc(OC)c(OC(=O)CCCc2ccc(NC(=O)c3ccc(C)nc3-c3ccc(C(F)(F)F)cc3)c(C(=O)N(C)C)c2)c(C(=O)OC)c1` [Compound 1-53, 4-[4-(3-dimethylcarbamoyl-4-{[6-methyl-2-(4-trifluoromethylphenyl)pyridine-3-carbonyl]amino}phenyl)butyryloxy]-5-methoxyisophthalic acid dimethyl ester], the IC50 was under 10 nM. With `CCc1cc(C(=O)OC)ccc1OC(=O)CCCc1ccc(NC(=O)c2ccccc2-c2ccc(C(F)(F)F)cc2)c(C(=O)N(C)C)c1` [Compound 1-67, 4-[4-(3-dimethylcarbamoyl-4-{(4′-trifluoromethylbiphenyl-2-carbonyl)amino}phenyl)butyryloxy]-3-ethylbenzoic acid methyl ester] the IC50 was under 10 nM. `COC(=O)c1ccc(OC(=O)CCCc2ccc(NC(=O)c3ccc(C)cc3-c3ccc(C(F)(F)F)cc3)c(C(=O)N(C)C)c2)cc1` [Compound 1-9, 4-(4-{3-dimethylcarbamoyl-4-[(5-methyl-4′-trifluoromethylbiphenyl-2-carbonyl)amino]phenyl}butyryloxy) benzoic acid methyl ester] was tested, and the IC50 was under 10 nM. `COc1cccc(COC(=O)c2ccc(OC(=O)CCCc3ccc(NC(=O)c4ccccc4-c4ccc(C(F)(F)F)cc4)c(C(=O)N(C)C)c3)cc2)c1` [Compound 1-97, 4-[4-(3-dimethylcarbamoyl-4-{(4′-trifluoromethylbiphenyl-2-carbonyl)amino}phenyl)butyryloxy]benzoic acid 3-methoxybenzyl ester] was tested, and the IC50 was under 10 nM. In the case of `CN(C)C(=O)c1cc(CCCC(=O)Oc2ccc(C(=O)OC3CCc4ccccc43)cc2)ccc1NC(=O)c1ccccc1-c1ccc(C(F)(F)F)cc1` (stereo not drawn) [Compound 1-107, 4-[4-(3-dimethylcarbamoyl-4-{(4′-trifluoromethylbiphenyl-2-carbonyl)amino}phenyl)butyryloxy]benzoic acid indan-1-yl ester], the IC50 is reported as under 10 nM. Work on `COC(=O)c1ccc(OC(=O)CCCc2ccc(NC(=O)c3ccccc3-c3ccc(C(F)(F)F)cc3)c(C(=O)N(C)C)c2)cc1` [Compound 1-5] yielded an IC50 of under 10 nM. With `CC(C)OC(=O)c1ccc(OC(=O)CCCc2ccc(NC(=O)c3ccncc3-c3ccc(C(F)(F)F)cc3)c(C(=O)N(C)C)c2)cc1` [Compound 1-29, 4-[4-(3-dimethylcarbamoyl-4-{[3-(4-trifluoromethylphenyl)pyridine-4-carbonyl]amino}phenyl)butyryloxy]benzoic acid isopropyl ester] the IC50 was under 10 nM. Molecule `CN(C)C(=O)c1cc(CC(=O)Oc2ccc(F)cc2)ccc1NC(=O)c1ccccc1-c1ccc(C(F)(F)F)cc1` [Compound 1-4, {3-dimethylcarbamoyl-4-[(4′-trifluoromethylbiphenyl-2-carbonyl)amino]phenyl}acetic acid 4-fluorophenyl ester] has an IC50 of 100 to 1000 nM. In the case of `COc1cc(C(=O)OC(C)C)cc(Cl)c1OC(=O)CCCc1ccc(NC(=O)c2ccc(C)nc2-c2ccc(C(F)(F)F)cc2)c(C(=O)N(C)C)c1` [Compound 1-37, 3-chloro-4-[4-(3-dimethylcarbamoyl-4-{[6-methyl-2-(4-trifluoromethylphenyl)pyridine-3-carbonyl]amino}phenyl)butyryloxy]-5-methoxybenzoic acid isopropyl ester], the IC50 is reported as under 10 nM. `COC(=O)c1ccc(OC(=O)CCCc2ccc(NC(=O)c3ccc(C)nc3-c3ccc(C(F)(F)F)cc3)c(C(=O)N(C)C)c2)c(C)c1` [Compound 1-69, 4-[4-(3-dimethylcarbamoyl-4-{[6-methyl-2-(4-trifluoromethylphenyl)pyridine-3-carbonyl]amino}phenyl)butyryloxy]-3-methylbenzoic acid methyl ester] was tested, and the IC50 was 10 to 100 nM. `CC(C)OC(=O)c1ccc(OC(=O)CCCc2ccc(NC(=O)c3cccnc3-c3ccc(C(F)(F)F)cc3)c(C(=O)N(C)C)c2)cc1` [Compound 1-31, 4-[4-(3-dimethylcarbamoyl-4-{[2-(4-trifluoromethylphenyl)pyridine-3-carbonyl]amino}phenyl)butyryloxy]benzoic acid isopropyl ester] was tested, and the IC50 was 10 to 100 nM. `CCOC(=O)c1ccc(OC(=O)CCCc2ccc(NC(=O)c3ccccc3-c3ccc(C(F)(F)F)cc3)c(C(=O)N(C)C)c2)cc1` [Compound 1-6, 4-(4-{3-dimethylcarbamoyl-4-[(4′-trifluoromethylbiphenyl-2-carbonyl)amino]phenyl}butyryloxy)benzoic acid ethyl ester] showed an IC50 of under 10 nM. `CC(=O)c1ccc(OC(=O)CCCc2ccc(NC(=O)c3ccccc3-c3ccc(C(F)(F)F)cc3)c(C(=O)N(C)C)c2)cc1` [Compound 1-22, 4-{3-dimethylcarbamoyl-4-[(4′-trifluoromethylbiphenyl-2-carbonyl)amino]phenyl}butyric acid 4-acetylphenyl ester] gave an IC50 of 10 to 100 nM. In the case of `COC(=O)c1ccc(-c2nc(C)ccc2C(=O)Nc2ccc(CCCC(=O)Oc3c(C)cc(C(=O)OC)cc3C(=O)OC)cc2C(=O)N(C)C)cc1` [Compound 4-2, 4-[4-(3-dimethylcarbamoyl-4-{[2-(4-methoxycarbonylphenyl)-6-methylpyridine-3-carbonyl]amino}phenyl)butyryloxy]-5-methylisophthalic acid dimethyl ester], the IC50 is reported as under 10 nM. `CCCC(=O)c1ccc(OC(=O)CCCc2ccc(NC(=O)c3ccccc3-c3ccc(C(F)(F)F)cc3)c(C(=O)N(C)C)c2)cc1` [Compound 1-93, 4-(3-dimethylcarbamoyl-4-{(4′-trifluoromethylbiphenyl-2-carbonyl)amino}phenyl)butyric acid 4-butyrylphenyl ester] showed an IC50 of under 10 nM. With `Cc1ccc(C(=O)Nc2ccc(CCCC(=O)Oc3ccc(C(=O)OCc4cccnc4)cc3)cc2C(=O)N(C)C)c(-c2ccc(C(F)(F)F)cc2)n1` [Compound 1-94, 4-[4-(3-dimethylcarbamoyl-4-{[6-methyl-2-(4-trifluoromethylphenyl)pyridine-3-carbonyl]amino}phenyl)butyryloxy]benzoic acid pyridin-3-ylmethyl ester] the IC50 was under 10 nM. For `CN(C)C(=O)c1cc(CCCC(=O)Oc2ccc(C(=O)OCCCO)cc2)ccc1NC(=O)c1ccccc1-c1ccc(C(F)(F)F)cc1` [Compound 1-92, 4-[4-(3-dimethylcarbamoyl-4-{(4′-trifluoromethylbiphenyl-2-carbonyl)amino}phenyl)butyryloxy]benzoic acid 3-hydroxypropyl ester], the IC50 was under 10 nM. Work on `CC(C)OC(=O)c1ccc(OC(=O)CCCc2ccc(NC(=O)c3ccccc3-c3ccc(C(F)(F)F)cc3)c(C(=O)N(C)C)c2)cc1` [Compound 1-7, 4-(4-{3-dimethylcarbamoyl-4-[(4′-trifluoromethylbiphenyl-2-carbonyl)amino]phenyl}butyryloxy)benzoic acid isopropyl ester] yielded an IC50 of under 10 nM. `CCOC(=O)c1ccc(OC(=O)CCCc2ccc(NC(=O)c3ccccc3-c3ccc(C(F)(F)F)cc3)c(C(=O)N3CCCC3)c2)c(F)c1` [Compound 1-16, 3-fluoro-4-(4-{3-(pyrrolidine-1-carbonyl)-4-[(4′-trifluoromethylbiphenyl-2-carbonyl)amino]phenyl}butyryloxy)benzoic acid ethyl ester] showed an IC50 of under 10 nM. `COC(=O)c1cc(OC)c(OC(=O)CCCc2ccc(NC(=O)c3ccc(C)nc3-c3ccc(C(F)(F)F)cc3)c(C(=O)N(C)C)c2)c(OC)c1` [Compound 1-39, 4-[4-(3-dimethylcarbamoyl-4-{[6-methyl-2-(4-trifluoromethylphenyl)pyridine-3-carbonyl]amino}phenyl)butyryloxy]-3,5-dimethoxybenzoic acid methyl ester] was tested, and the IC50 was under 10 nM. Molecule `COC(=O)c1cc(Cl)c(OC(=O)CCCc2ccc(NC(=O)c3ccc(C)nc3-c3ccc(C(F)(F)F)cc3)c(C(=O)N(C)C)c2)c(C(C)C)c1` [Compound 1-74, 3-chloro-4-[4-(3-dimethylcarbamoyl-4-{[6-methyl-2-(4-trifluoromethylphenyl)pyridine-3-carbonyl]amino}phenyl)butyryloxy]-5-isopropylbenzoic acid methyl ester] has an IC50 of under 10 nM.
